The target in this assay is T1, MAPK13 (p38 delta) (Homo sapiens, UniProt O15264).
T1 construct: purchased Thermo Fisher Scientific (Life Technologies) SelectScreen
The experiment in a line: SelectScreen Z'LYTE. Format: biochemical. In outline: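 SelectScreen broad panel; activity (Z'LYTE, Adapta) plus binding formats. ATP: Km app for CSF1R Z'LYTE; 10 for CAMK1 Adapta. Readout = % per kinase.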

T1 sequence (O15264 whole entry): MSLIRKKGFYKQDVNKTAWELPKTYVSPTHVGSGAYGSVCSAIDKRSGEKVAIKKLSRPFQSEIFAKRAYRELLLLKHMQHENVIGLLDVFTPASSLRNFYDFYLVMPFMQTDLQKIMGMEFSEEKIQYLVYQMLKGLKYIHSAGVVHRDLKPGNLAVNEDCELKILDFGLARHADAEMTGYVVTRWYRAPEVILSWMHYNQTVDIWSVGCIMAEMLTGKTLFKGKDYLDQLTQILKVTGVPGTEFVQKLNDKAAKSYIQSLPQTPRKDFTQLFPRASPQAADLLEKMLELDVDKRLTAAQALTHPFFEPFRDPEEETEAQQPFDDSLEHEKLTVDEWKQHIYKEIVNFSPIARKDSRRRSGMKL

In general, inhibition refers to the change of the read-out against control, counted positive when it falls. A low value points to a weak effect. On to `CN(C(=O)CN1CCOCC1)c1ccc2sc3c(-c4cccc5c(=O)cc(N6CC7CCC(C6)O7)oc45)cccc3c2c1` [NU5455], for which the inhibition at 1 µM turned out to be 5.8%.

The record behind these values is paper PMC6934184, “Selective DNA-PKcs inhibition extends the therapeutic index of localized radiotherapy and chemotherapy” (The Journal of Clinical Investigation, 2019).
